Measurements: US20090270407A1, “FUNGICIDAL ISOXAZOLIDINES” (E. I. DU PONT DE NEMOURS AND COMPANY, priority 2008, published 2009)
Marks after values point to notes of the source that are not given here.

What was measured:
Conditions in all cases: 100 = 100 % disease control, 0 = no disease control relative to controls
Septoria tritici = experiment: Test D: wheat leaf blotch, preventive spray on wheat seedlings, visual disease rating; type: in vivo
Description: A dash (−) indicates no test results.

[1] = test system: Erysiphe graminis f. sp. tritici; experiment: Test A: wheat powdery mildew, preventive spray on wheat seedlings, visual disease rating
Description: (§1) General protocol for preparing test suspensions for Tests A-I: The test compounds were first dissolved in acetone in an amount equal to 3% of the final volume and then suspended at the desired concentration (in ppm) in acetone and purified water (50/50 mix) containing 250 ppm of the surfactant Trem® 014 (polyhydric alcohol esters). The resulting test suspensions were then used in Tests A-I. Spraying a 200 ppm test suspension to the point of run-off on the test plants was the equivalent of a rate of 500 g/ha. (An asterisk “*” next to the rating value indicates a 40 ppm test suspension.)
The test suspension was sprayed to the point of run-off on wheat seedlings. The following day the seedlings were inoculated with a spore dust of Erysiphe graminis f. sp. tritici (the causal agent of wheat powdery mildew) and incubated in a growth chamber at 20° C. for 8 days, after which time visual disease ratings were made.

Botrytis cinerea = experiment: Test E: tomato Botrytis, preventive spray on tomato seedlings, visual disease rating
Description: (§2) General protocol for preparing test suspensions for Tests A-I: The test compounds were first dissolved in acetone in an amount equal to 3% of the final volume and then suspended at the desired concentration (in ppm) in acetone and purified water (50/50 mix) containing 250 ppm of the surfactant Trem® 014 (polyhydric alcohol esters). The resulting test suspensions were then used in Tests A-I. Spraying a 200 ppm test suspension to the point of run-off on the test plants was the equivalent of a rate of 500 g/ha.
The test suspension was sprayed to the point of run-off on tomato seedlings. The following day the seedlings were inoculated with a spore suspension of Botrytis cinerea (the causal agent of tomato Botrytis) and incubated in saturated atmosphere at 20° C. for 48 h, and then moved to a growth chamber at 24° C. for 3 additional days, after which time visual disease ratings were made.
(§3) All results are for 200 ppm except where followed by “*” which indicates 40 ppm.

Alternaria solani = experiment: Test F: tomato early blight, preventive spray on tomato seedlings, visual disease rating
Description: as §1
The test suspension was sprayed to the point of run-off on tomato seedlings. The following day the seedlings were inoculated with a spore suspension of Alternaria solani (the causal agent of tomato early blight) and incubated in a saturated atmosphere at 27° C. for 48 h, and then moved to a growth chamber at 20° C. for 5 days, after which time visual disease ratings were made.
(§4) A dash (−) indicates no test results. All results are for 200 ppm except where followed by “*” which indicates 40 ppm.

[2] = test system: Puccinia recondita f. sp. tritici; experiment: Test B: wheat leaf rust, preventive spray on wheat seedlings, visual disease rating
Description: as §2
The test suspension was sprayed to the point of run-off on wheat seedlings. The following day the seedlings were inoculated with a spore suspension of Puccinia recondita f. sp. tritici (the causal agent of wheat leaf rust) and incubated in a saturated atmosphere at 20° C. for 24 h, and then moved to a growth chamber at 20° C. for 7 days, after which time visual disease ratings were made.
as §3

Septoria nodorum = experiment: Test C: wheat glume blotch, preventive spray on wheat seedlings, visual disease rating
Description: (An asterisk “*” next to the rating value indicates a 40 ppm test suspension.)
The test suspension was sprayed to the point of run-off on wheat seedlings. The following day the seedlings were inoculated with a spore suspension of Septoria nodorum (the causal agent of wheat glume blotch) and incubated in a saturated atmosphere at 20° C. for 48 h, and then moved to a growth chamber at 20° C. for 7 days, after which time visual disease ratings were made.
as §4

| SMILES | Test D disease control rating (Septoria tritici; 40 ppm (marked *)) | Test A disease control rating ([1]; 40 ppm (marked *)) | Test E disease control rating (Botrytis cinerea; 40 ppm (marked *)) | Test F disease control rating (Alternaria solani; 40 ppm (marked *)) | Test B disease control rating ([2]; 40 ppm (marked *)) | Test C disease control rating (Septoria nodorum; 40 ppm (marked *)) | Test D disease control rating (Septoria tritici; 200 ppm) | Test A disease control rating ([1]; 200 ppm) | Test E disease control rating (Botrytis cinerea; 200 ppm) | Test F disease control rating (Alternaria solani; 200 ppm) | Test B disease control rating ([2]; 200 ppm) | Test C disease control rating (Septoria nodorum; 200 ppm) |
| --- | --- | --- | --- | --- | --- | --- | --- | --- | --- | --- | --- | --- |
| Cc1cc(C)n(-c2ccc(C3CC(C)(c4cccnc4)ON3C)cc2)n1 (stereo not drawn) [Compound 51] | 32* % | 0* % | 0* % | 0* % | 0* % | 0* % |  |  |  |  |  |  |
| CN1OC(C)(c2cccnc2)CC1c1ccc(-c2cncnc2)cc1 (stereo not drawn) [Compound 52] | 76* % | 0* % | 92* % | 59* % | 0* % | 99* % |  |  |  |  |  |  |
| CN1OC(C)(c2cccnc2)CC1c1ccc(-c2cncnc2)cc1 (stereo not drawn) [Compound 53] | 68* % | 0* % | 25* % | 31* % | 0* % | 0* % |  |  |  |  |  |  |
| CN1OC(C)(c2cccnc2)CC1c1ccc(-c2cccs2)cc1 (stereo not drawn) [Compound 54] | 79* % | 71* % | 99* % | 99* % | 9* % | 98* % |  |  |  |  |  |  |
| CN1OC(C)(c2cccnc2)CC1c1ccc(-c2cccs2)cc1 (stereo not drawn) [Compound 55] | 93* % | 61* % | 97* % | 85* % | 0* % | 84* % |  |  |  |  |  |  |
| CN1OC(C)(c2cccnc2)CC1c1ccc(-n2cc(I)cn2)cc1 (stereo not drawn) [Compound 56] | 74* % | 52* % | 94* % | 91* % | 0* % | 99* % |  |  |  |  |  |  |
| CN1OC(C)(c2cccnc2)CC1c1ccc(-n2cc(I)cn2)cc1 (stereo not drawn) [Compound 57] | 57* % | 0* % | 0* % | 0* % | 0* % | 0* % |  |  |  |  |  |  |
| CN1OC(C)(c2cccnc2)CC1c1ccc(-n2nc(C(F)(F)F)cc2C(F)(F)F)cc1 (stereo not drawn) [Compound 58] | 91* % | 80* % | 0* % | 8* % | 0* % | 0* % |  |  |  |  |  |  |
| CN1OC(C)(c2cccnc2)CC1c1ccc(-n2nc(C(F)(F)F)cc2C(F)(F)F)cc1 (stereo not drawn) [Compound 59] | 2* % | 52* % | 0* % | 0* % | 0* % | 0* % |  |  |  |  |  |  |
| CN1OC(C)(c2cccnc2)CC1c1ccc(-c2ccncc2)cc1 (stereo not drawn) [Compound 60] | 3* % | 0* % | 29* % | 0* % | 0* % | 0* % |  |  |  |  |  |  |
| CN1OC(C)(c2cccnc2)CC1c1ccc(-c2ccncc2)cc1 (stereo not drawn) [Compound 61] | 5* % | 0* % | 0* % | 0* % | 0* % | 0* % |  |  |  |  |  |  |
| CN1OC(C)(c2cccnc2)CC1c1cccc(Br)c1 (stereo not drawn) [Compound 64] |  |  |  |  |  |  | 45% | 64% | 0% | 0% | 0% | 0% |
| CN1OC(C)(c2cccnc2)CC1c1ccccc1Br (stereo not drawn) [Compound 65] |  |  |  |  |  |  | 5% | 0% | 0% | 0% | 0% | 0% |
| CN1OC(C)(c2cccnc2)CC1c1ccccc1Br (stereo not drawn) [Compound 66] |  |  |  |  |  |  | 5% | 0% | 0% | 0% | 0% | 0% |
| CN1OC(C)(c2cccnc2)CC1c1cccc(Br)c1 (stereo not drawn) [Compound 67] |  |  |  |  |  |  | 8% | 47% | 34% | 0% | 0% | 0% |
| Cc1cnn(-c2ccc(C3CC(C)(c4cccnc4)ON3C)cc2)c1 (stereo not drawn) [Compound 69] | 12* % | 0* % | 87* % | 99* % | 0* % | 97* % |  |  |  |  |  |  |
| CN1OC(C)(c2cccnc2)CC1c1ccc(-n2nc(C(F)(F)F)cc2-c2ccccn2)cc1 (stereo not drawn) [Compound 70] | 54* % | 0* % | 0* % | 72* % | 26* % | 0* % |  |  |  |  |  |  |
| CN1OC(C)(c2cccnc2)CC1c1ccc(-n2nc(C(F)(F)F)cc2-c2ccccn2)cc1 (stereo not drawn) [Compound 71] | 10* % | 0* % | 0* % | 12* % | 28* % | 0* % |  |  |  |  |  |  |
| CN1OC(c2cccnc2)CC1c1ccc(-n2ccc(C(F)(F)F)n2)cc1 (stereo not drawn) [Compound 72] | 93* % | 99* % | 96* % | 94* % | 100* % | 100* % |  |  |  |  |  |  |
| CN1OC(C)(c2cccnc2)CC1c1ccc(-n2nc(-c3ccccn3)cc2C(F)(F)F)cc1 (stereo not drawn) [Compound 74] | 2* % | 0* % | 0* % | 0* % | 22* % | 0* % |  |  |  |  |  |  |
| CN1OC(C)(c2cccnc2)CC1c1ccc(-n2nc(-c3ccccn3)cc2C(F)(F)F)cc1 (stereo not drawn) [Compound 75] | 19* % | 0* % | 0* % | 0* % | 22* % | 0* % |  |  |  |  |  |  |
| CN1OC(C)(c2cccnc2)CC1c1cccc(Cl)c1 (stereo not drawn) [Compound 76] |  |  |  |  |  |  | 34% | 84% | 85% | 9% | 0% | 0% |
| CN1OC(C)(c2cccnc2)CC1c1cccc(Cl)c1 (stereo not drawn) [Compound 77] |  |  |  |  |  |  | 62% | 0% | 0% | 0% | 0% | 0% |
| CN1OC(C)(c2cccnc2)CC1c1ccccc1F (stereo not drawn) [Compound 78] |  |  |  |  |  |  | 16% | 0% | 0% | 0% | 0% | 0% |
